Columns and labels:
Set-up in all cases: scale not given here
[1] = system: ZEAMX Corn, Field; assay: Postemergence herbicidal evaluation, ZEAMX; type: in vivo, Zea mays, L. (Sammel-Bezeichnung); details: postemergence spray, rated about two-three weeks after treatment
How it was run: (§1)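 Ratings from greenhouse plants scored about two to three weeks after a foliar spray; data from multiple tests averaged. Seedlings about two weeks old received roughly 0.006–0.400 kg/ha active compound in 80/20 acetone/water with 1.0% methylated seed oil.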

[2] = system: SETVI Foxtail, Green; assay: Postemergence herbicidal evaluation, SETVI; type: in vivo, Setaria viridis, (L.) Beau; details: postemergence spray, rated about two-three weeks after treatment
How it was run: as §1

[3] = system: GLXMAW Soybean, Williams; assay: Postemergence herbicidal evaluation, GLXMAW; type: in vivo, Glycine max, (L.) Merr. cv Williams; details: postemergence spray, rated about two-three weeks after treatment
How it was run: as §1

[4] = system: GALAP Galium; assay: Postemergence herbicidal evaluation, GALAP; type: in vivo, Galium aparine; details: postemergence spray, rated about two-three weeks after treatment
How it was run: as §1

[5] = system: ORYSAT Rice, Tebonnet; assay: Postemergence herbicidal evaluation, ORYSAT; type: in vivo, Oryza sativa, (L.); details: postemergence spray, rated about two-three weeks after treatment
How it was run: as §1

[6] = system: IPOHE Morningglory, Ivyleaf; assay: Postemergence herbicidal evaluation, IPOHE; type: in vivo, Ipomoea hederacea, (L.) Jacq.; details: postemergence spray, rated about two-three weeks after treatment
How it was run: as §1

[7] = system: TRZAWR Wheat, Winter, cv Riband; assay: Postemergence herbicidal evaluation, TRZAWR; type: in vivo, Triticum aestivum; details: postemergence spray, rated about two-three weeks after treatment
How it was run: as §1

[8] = system: CHEAL Lambsquarters, Common; assay: Postemergence herbicidal evaluation, CHEAL; type: in vivo, Chenopodium album, L.; details: postemergence spray, rated about two-three weeks after treatment
How it was run: as §1

[9] = system: ORYSAT Rice, Tebonnet; assay: Preemergence herbicidal evaluation, ORYSAT; type: in vivo, Oryza sativa, (L.); details: preemergence
How it was run: (§2)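 Preemergence soil spray: aqueous acetone, ~0.013–0.800 kg/ha, applied right after sowing (seed/potting-soil mix over ~1 in soil). Greenhouse, routine watering. Scored 4–5 wk post-treatment on a rating scale.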

[10] = system: TRZAWR Wheat, Winter, cv Riband; assay: Preemergence herbicidal evaluation, TRZAWR; type: in vivo, Triticum aestivum; details: preemergence
How it was run: as §2

[11] = system: ABUTH Velvetleaf; assay: Preemergence herbicidal evaluation, ABUTH; type: in vivo, Abutilon theophrasti, Medic.; details: preemergence
How it was run: as §2

[12] = system: ABUTH Velvetleaf; assay: Postemergence herbicidal evaluation, ABUTH; type: in vivo, Abutilon theophrasti, Medic.; details: postemergence spray, rated about two-three weeks after treatment
How it was run: as §1

[13] = system: AMBEL Ragweed, Common; assay: Postemergence herbicidal evaluation, AMBEL; type: in vivo, Ambrosia artemisifolia, L.; details: postemergence spray, rated about two-three weeks after treatment
How it was run: as §1

[14] = system: CASOB Sicklepod; assay: Preemergence herbicidal evaluation, CASOB; type: in vivo, Cassia obtusifolia, L.; details: preemergence
How it was run: as §2

[15] = system: SETVI Foxtail, Green; assay: Preemergence herbicidal evaluation, SETVI; type: in vivo, Setaria viridis, (L.) Beau; details: preemergence
How it was run: as §2

[16] = system: IPOHE Morningglory, Ivyleaf; assay: Preemergence herbicidal evaluation, IPOHE; type: in vivo, Ipomoea hederacea, (L.) Jacq.; details: preemergence
How it was run: as §2

[17] = system: AMBEL Ragweed, Common; assay: Preemergence herbicidal evaluation, AMBEL; type: in vivo, Ambrosia artemisifolia, L.; details: preemergence
How it was run: as §2

[18] = system: CHEAL Lambsquarters, Common; assay: Preemergence herbicidal evaluation, CHEAL; type: in vivo, Chenopodium album, L.; details: preemergence
How it was run: as §2

[19] = system: CASOB Sicklepod; assay: Postemergence herbicidal evaluation, CASOB; type: in vivo, Cassia obtusifolia, L.; details: postemergence spray, rated about two-three weeks after treatment
How it was run: as §1

With `Cc1ccc(O)c(-n2nnc3cc(F)c(-n4c(=O)cc(C(F)(F)F)n(C)c4=O)cc32)c1` [Example 31, 3-[5-Fluoro-1-(2-Hydroxy-5-Methylphenyl)-1H-1,2,3-Benzotriazol-6-yl]-1-Methyl-6-(Trifluoromethyl)-2,4(1H,3H)-(Pyrimidinedione)] the “Postemergence herbicidal rating ZEAMX” value ([1]; 0.008 kg/ha) was 3.5, the “Postemergence herbicidal rating ZEAMX” value ([1]; 0.016 kg/ha) was 3.5 and the “Postemergence herbicidal rating ZEAMX” value ([1]; 0.032 kg/ha) was 4.5. The “Postemergence herbicidal rating ZEAMX” value ([1]; 0.062 kg/ha) was 4.5, the “Postemergence herbicidal rating SETVI” value ([2]; 0.008 kg/ha) was 0.0 and the “Postemergence herbicidal rating SETVI” value ([2]; 0.016 kg/ha) was 0.0. The “Postemergence herbicidal rating SETVI” value ([2]; 0.032 kg/ha) was 0.0, the “Postemergence herbicidal rating SETVI” value ([2]; 0.062 kg/ha) was 5.0 and the “Postemergence herbicidal rating GLXMAW” value ([3]; 0.008 kg/ha) was 3.5. The “Postemergence herbicidal rating GLXMAW” value ([3]; 0.016 kg/ha) was 3.5, the “Postemergence herbicidal rating GLXMAW” value ([3]; 0.032 kg/ha) was 4.5 and the “Postemergence herbicidal rating GLXMAW” value ([3]; 0.062 kg/ha) was 5.0. The “Postemergence herbicidal rating GALAP” value ([4]; 0.008 kg/ha) was 0.0, the “Postemergence herbicidal rating GALAP” value ([4]; 0.016 kg/ha) was 0.0 and the “Postemergence herbicidal rating GALAP” value ([4]; 0.032 kg/ha) was 0.0. The “Postemergence herbicidal rating GALAP” value ([4]; 0.062 kg/ha) was 0.0, the “Postemergence herbicidal rating ORYSAT” value ([5]; 0.008 kg/ha) was 1.0 and the “Postemergence herbicidal rating ORYSAT” value ([5]; 0.016 kg/ha) was 1.0. The “Postemergence herbicidal rating ORYSAT” value ([5]; 0.032 kg/ha) was 1.5, the “Postemergence herbicidal rating ORYSAT” value ([5]; 0.062 kg/ha) was 1.5 and the “Postemergence herbicidal rating IPOHE” value ([6]; 0.008 kg/ha) was 1.0. For the same compound, the “Postemergence herbicidal rating IPOHE” value ([6]; 0.016 kg/ha) was 2.0, the “Postemergence herbicidal rating IPOHE” value ([6]; 0.032 kg/ha) was 4.0 and the “Postemergence herbicidal rating IPOHE” value ([6]; 0.062 kg/ha) was 4.0. For the same compound, the “Postemergence herbicidal rating TRZAWR” value ([7]; 0.008 kg/ha) was 2.0, the “Postemergence herbicidal rating TRZAWR” value ([7]; 0.016 kg/ha) was 2.0 and the “Postemergence herbicidal rating TRZAWR” value ([7]; 0.032 kg/ha) was 3.0. The “Postemergence herbicidal rating TRZAWR” value ([7]; 0.062 kg/ha) was 3.0, the “Postemergence herbicidal rating CHEAL” value ([8]; 0.008 kg/ha) was 0.0 and the “Postemergence herbicidal rating CHEAL” value ([8]; 0.016 kg/ha) was 0.0. For the same compound, the “Postemergence herbicidal rating CHEAL” value ([8]; 0.032 kg/ha) was 0.0, the “Postemergence herbicidal rating CHEAL” value ([8]; 0.062 kg/ha) was 0.0 and the ORYSAT herbicidal rating ([9]; rate 0.008 kg/ha) was 0.0. It also gave an ORYSAT herbicidal rating ([9]; rate 0.016 kg/ha) of 0.0, an ORYSAT herbicidal rating ([9]; rate 0.032 kg/ha) of 0.0 and an ORYSAT herbicidal rating ([9]; rate 0.062 kg/ha) of 0.0. For the same compound, the ORYSAT herbicidal rating ([9]; rate 0.125 kg/ha) was 0.0, the TRZAWR herbicidal rating ([10]; rate 0.008 kg/ha) was 0.0 and the TRZAWR herbicidal rating ([10]; rate 0.016 kg/ha) was 0.0. The TRZAWR herbicidal rating ([10]; rate 0.032 kg/ha) was 0.0, the TRZAWR herbicidal rating ([10]; rate 0.062 kg/ha) was 0.0 and the TRZAWR herbicidal rating ([10]; rate 0.125 kg/ha) was 0.0. The ABUTH herbicidal rating ([11]; rate 0.008 kg/ha) was 0.0, the ABUTH herbicidal rating ([11]; rate 0.016 kg/ha) was 0.0 and the ABUTH herbicidal rating ([11]; rate 0.032 kg/ha) was 0.0. For the same compound, the ABUTH herbicidal rating ([11]; rate 0.062 kg/ha) was 0.0, the ABUTH herbicidal rating ([11]; rate 0.125 kg/ha) was 3.0 and the “Postemergence herbicidal rating ABUTH” value ([12]; 0.008 kg/ha) was 0.0. For the same compound, the “Postemergence herbicidal rating ABUTH” value ([12]; 0.016 kg/ha) was 0.0, the “Postemergence herbicidal rating ABUTH” value ([12]; 0.032 kg/ha) was 2.0 and the “Postemergence herbicidal rating ABUTH” value ([12]; 0.062 kg/ha) was 4.0. For the same compound, the “Postemergence herbicidal rating AMBEL” value ([13]; 0.008 kg/ha) was 0.0, the “Postemergence herbicidal rating AMBEL” value ([13]; 0.016 kg/ha) was 0.0 and the “Postemergence herbicidal rating AMBEL” value ([13]; 0.032 kg/ha) was 0.0. For the same compound, the “Postemergence herbicidal rating AMBEL” value ([13]; 0.062 kg/ha) was 3.0, the CASOB herbicidal rating ([14]; rate 0.008 kg/ha) was 0.0 and the CASOB herbicidal rating ([14]; rate 0.016 kg/ha) was 0.0. It also gave a CASOB herbicidal rating ([14]; rate 0.032 kg/ha) of 0.0, a CASOB herbicidal rating ([14]; rate 0.062 kg/ha) of 0.0 and a CASOB herbicidal rating ([14]; rate 0.125 kg/ha) of 0.0. For the same compound, the SETVI herbicidal rating ([15]; rate 0.008 kg/ha) was 0.0, the SETVI herbicidal rating ([15]; rate 0.016 kg/ha) was 0.0 and the SETVI herbicidal rating ([15]; rate 0.032 kg/ha) was 0.0. The SETVI herbicidal rating ([15]; rate 0.062 kg/ha) was 0.0, the SETVI herbicidal rating ([15]; rate 0.125 kg/ha) was 0.0 and the IPOHE herbicidal rating ([16]; rate 0.008 kg/ha) was 0.0. The IPOHE herbicidal rating ([16]; rate 0.016 kg/ha) was 0.0, the IPOHE herbicidal rating ([16]; rate 0.032 kg/ha) was 0.0 and the IPOHE herbicidal rating ([16]; rate 0.062 kg/ha) was 0.0. It also gave an IPOHE herbicidal rating ([16]; rate 0.125 kg/ha) of 0.0, an AMBEL herbicidal rating ([17]; rate 0.008 kg/ha) of 0.0 and an AMBEL herbicidal rating ([17]; rate 0.016 kg/ha) of 0.0. The AMBEL herbicidal rating ([17]; rate 0.032 kg/ha) was 0.0, the AMBEL herbicidal rating ([17]; rate 0.062 kg/ha) was 0.0 and the AMBEL herbicidal rating ([17]; rate 0.125 kg/ha) was 0.0. The CHEAL herbicidal rating ([18]; rate 0.008 kg/ha) was 0.0, the CHEAL herbicidal rating ([18]; rate 0.016 kg/ha) was 0.0 and the CHEAL herbicidal rating ([18]; rate 0.032 kg/ha) was 0.0. The CHEAL herbicidal rating ([18]; rate 0.062 kg/ha) was 3.0, the CHEAL herbicidal rating ([18]; rate 0.125 kg/ha) was 9.0 and the “Postemergence herbicidal rating CASOB” value ([19]; 0.008 kg/ha) was 0.0. For the same compound, the “Postemergence herbicidal rating CASOB” value ([19]; 0.016 kg/ha) was 0.0, the “Postemergence herbicidal rating CASOB” value ([19]; 0.032 kg/ha) was 0.0 and the “Postemergence herbicidal rating CASOB” value ([19]; 0.062 kg/ha) was 0.0.

From US20020111274A1, “1-alkyl-3-[1-(substituted phenyl) benzotriazol-6-yl] uracils” (BASF Aktiengesellschaft, priority 2000, published 2002)
